Consider 13 molecules from patent publication US20240279241A1, “PYRIDO[4,3-D]PYRIMIDINE COMPOUNDS CAPABLE OF INHIBITING KRAS MUTANT PROTEINS” (Redx Pharma PLC, priority 2021, published 2024).

Like-named read-outs stand apart in the source and are kept apart here. Bounds are passed on as bounds.

Type in all cases: biochemical
One assay has as its target T1, KRAS G13D (Homo sapiens, UniProt P01116, G13D).
T1 construct: Recombinant human RAS protein (2 nM); aa1-188 KRAS WT
Description: HTRF nucleotide exchange assay (NEA), KRAS G13D. The procedure:
(§1) The capacity of compounds to bind KRAS G12D, other KRAS mutants and wildtype RAS isoforms was quantified using a HTRF nucleotide exchange assay. Recombinant human RAS protein (2 nM; aa1-188 KRAS WT, HRAS WT, NRAS WT, or KRAS containing the containing the G12D, G13D or Q61H amino acid substitutions, or 4 nM KRAS; aa1-188 containing the G12V, G12C, G12A or G12S amino acid substitution, an N-terminal 6×His-tag and leader sequence), and 2 nM Europium-labeled anti-6×His antibody were mixed in assay buffer (10 mM HEPES pH7.3, 150 mM NaCl, 5 mM MgCl2, 0.05% BSA, 0.0025% NP-40 and 100 mM KF) with various concentrations of compound in a 384-well plate and a volume of 5 uL. After a 60-minute incubation at room temperature, 5 ul of 200 nM EDA-GTP-DY647P1 (diluted in assay buffer) was added to the plate. Following 30-minute incubation at room temperature, time-resolved fluorescence was measured on a PerkinElmer Envision plate reader. DMSO (0.3%) and unlabeled […] (1 μM) or equivalent tool compound were used to generate the Max and Min assay signals, respectively. Data was analysed using a four-parameter logistic model to calculate IC50 values, with at least two independent replicates were performed for each compound.

A further assay addresses T2, KRAS G12S (Homo sapiens, UniProt P01116, G12S).
T2 construct: 4 nM KRAS; aa1-188 containing the G12V, G12C, G12A or G12S amino acid substitution
Nature of the assay: HTRF nucleotide exchange assay (NEA), KRAS G12S. As to the method: as §1

For the next assay, the target named is T3, KRAS G12A (Homo sapiens, UniProt P01116, G12A).
T3 construct: 4 nM KRAS; aa1-188 containing the G12V, G12C, G12A or G12S amino acid substitution
T3 sequence (P01116 1-188 isoform P01116-2 G12A): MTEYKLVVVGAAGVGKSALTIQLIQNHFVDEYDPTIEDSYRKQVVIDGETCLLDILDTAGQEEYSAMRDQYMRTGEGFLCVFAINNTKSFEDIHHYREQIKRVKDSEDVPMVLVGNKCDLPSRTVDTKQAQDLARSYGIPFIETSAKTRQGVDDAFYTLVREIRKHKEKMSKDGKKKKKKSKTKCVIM
Description: HTRF nucleotide exchange assay (NEA), KRAS G12A. The procedure: as §1
For orientation: In TR-FRET formats the signal depends on donor and acceptor labels being close together.

A further assay has as its target T4, KRAS G12V (Homo sapiens, UniProt P01116, G12V).
T4 construct: 4 nM KRAS; aa1-188 containing the G12V, G12C, G12A or G12S amino acid substitution
Nature of the assay: HTRF nucleotide exchange assay (NEA), KRAS G12V. The method in brief:
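After a further 30 minutes at room temperature, time-resolved fluorescence was read on a PerkinElmer Envision. The buffer contained 10 mM HEPES pH7.3, 150 mM NaCl, 5 mM MgCl2, 0.05% BSA, 0.0025% NP-40 and 100 mM KF. DMSO (0.3%) gave the Max signal and unlabeled GOP (1 μM) the Min signal. IC50 came from four-parameter logistic fits of at least two independent replicates.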

The next assay concerns the target T5, KRAS G12D (Homo sapiens, UniProt P01116, G12D).
T5 construct: Recombinant human RAS protein (2 nM)
Nature of the assay: HTRF nucleotide exchange assay (NEA), KRAS G12D. The conditions noted are these: recombinant human KRAS G12D aa1-188, 2 nM; lowest class = % inhibition at 10 μM. The method in brief: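 Compound binding to KRAS G12D was measured by HTRF nucleotide exchange. Recombinant human KRAS G12D (aa1-188, N-terminal 6×His-tag, 2 nM) and 2 nM Europium anti-6×His antibody were combined with compound in 5 uL assay buffer in 384-well plates for 60 minutes at room temperature, then 5 ul of 200 nM EDA-GTP-DY647P1 was added for 30 minutes before time-resolved fluorescence reading.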

For another assay, the target named is T6, KRAS WT (Homo sapiens, UniProt P01116).
T6 construct: Recombinant human RAS protein (2 nM); aa1-188 KRAS WT
T6 sequence (P01116 1-188 isoform P01116-2): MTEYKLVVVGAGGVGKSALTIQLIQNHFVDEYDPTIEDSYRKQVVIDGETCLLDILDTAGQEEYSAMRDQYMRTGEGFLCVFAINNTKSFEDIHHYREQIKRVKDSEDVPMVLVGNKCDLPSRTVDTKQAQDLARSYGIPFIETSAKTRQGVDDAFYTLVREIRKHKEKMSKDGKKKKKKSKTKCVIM
Description: HTRF nucleotide exchange assay (NEA), KRAS WT. The method in brief:
(§2)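 Compound was preincubated 60 min at room temperature with His-tagged human KRAS (aa1-188; WT and G13D at 2 nM, G12C and G12S at 4 nM) and 2 nM Eu-anti-His antibody. Labelled GTP (EDA-GTP-DY647P1, 200 nM) was added for 30 min, then HTRF was read and IC50 derived by four-parameter logistic fit.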

The target in another assay is T7, KRAS Q61H (Homo sapiens, UniProt P01116, Q61H).
T7 construct: Recombinant human RAS protein (2 nM); aa1-188 KRAS WT
T7 sequence (P01116 1-188 isoform P01116-2 Q61H): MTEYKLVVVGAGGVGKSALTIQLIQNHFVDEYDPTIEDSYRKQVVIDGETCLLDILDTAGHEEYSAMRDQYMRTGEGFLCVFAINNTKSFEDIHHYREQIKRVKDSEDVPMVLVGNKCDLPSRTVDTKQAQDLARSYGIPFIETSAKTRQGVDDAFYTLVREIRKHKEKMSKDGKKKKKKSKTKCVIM
Description: HTRF nucleotide exchange assay (NEA), KRAS Q61H. The procedure:
as §1

A further assay deals with T8, KRAS G12C (Homo sapiens, UniProt P01116, G12C).
T8 construct: 4 nM KRAS; aa1-188 containing the G12V, G12C, G12A or G12S amino acid substitution
T8 sequence (P01116 1-188 isoform P01116-2 G12C): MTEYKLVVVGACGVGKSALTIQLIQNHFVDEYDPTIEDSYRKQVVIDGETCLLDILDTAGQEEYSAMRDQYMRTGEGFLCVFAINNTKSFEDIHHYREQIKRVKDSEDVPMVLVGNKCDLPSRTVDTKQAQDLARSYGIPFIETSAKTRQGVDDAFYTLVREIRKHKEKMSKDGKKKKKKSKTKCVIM
Nature of the assay: HTRF nucleotide exchange assay (NEA), KRAS G12C. The method in brief:
as §2

Setting [1] is: recombinant human KRAS G13D aa1-188, 2 nM, lowest class = % inhibition at 10 μM.
Setting [2] is: recombinant human KRAS G12S aa1-188, 4 nM, lowest class = % inhibition at 10 μM.

T1 sequence (P01116 1-188 isoform P01116-2 G13D): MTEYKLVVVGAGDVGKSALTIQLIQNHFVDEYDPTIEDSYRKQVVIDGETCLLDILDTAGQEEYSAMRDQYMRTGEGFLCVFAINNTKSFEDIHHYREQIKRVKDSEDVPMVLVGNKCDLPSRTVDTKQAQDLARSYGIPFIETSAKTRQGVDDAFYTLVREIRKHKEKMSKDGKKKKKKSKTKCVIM
T5 sequence (P01116 1-188 isoform P01116-2 G12D): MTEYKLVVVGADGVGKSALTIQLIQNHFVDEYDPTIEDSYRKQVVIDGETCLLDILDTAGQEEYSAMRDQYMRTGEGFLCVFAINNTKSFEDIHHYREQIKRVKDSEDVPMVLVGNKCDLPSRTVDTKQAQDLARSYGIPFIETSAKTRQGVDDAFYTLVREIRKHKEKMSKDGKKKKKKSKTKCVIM
T2 sequence (P01116 1-188 isoform P01116-2 G12S): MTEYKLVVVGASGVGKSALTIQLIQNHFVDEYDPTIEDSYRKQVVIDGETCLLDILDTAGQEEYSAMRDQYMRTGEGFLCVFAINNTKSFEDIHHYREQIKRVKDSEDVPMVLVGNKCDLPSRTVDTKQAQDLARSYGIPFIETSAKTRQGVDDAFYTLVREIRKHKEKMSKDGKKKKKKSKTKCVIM
T4 sequence (P01116 1-188 isoform P01116-2 G12V): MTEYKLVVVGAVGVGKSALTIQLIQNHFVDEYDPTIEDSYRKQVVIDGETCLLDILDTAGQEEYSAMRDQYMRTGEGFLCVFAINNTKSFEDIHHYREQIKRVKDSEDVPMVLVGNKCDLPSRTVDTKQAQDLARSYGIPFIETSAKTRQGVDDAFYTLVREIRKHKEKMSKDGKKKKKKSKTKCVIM

Consider `C#Cc1c(F)ccc2cc(O)cc(-c3ncc4c(N5CCCCCC5)nc(OC[C@@]56CCCN5C[C@H](F)C6)nc4c3F)c12` (relative stereo) [Example 84, 4-[4-(azepan-1-yl)-8-fluoro-2-[[trans-2-fluoro-1,2,3,5,6,7-hexahydropyrrolizin-8-yl]methoxy]pyrido[4,3-d]pyrimidin-7-yl]-5-ethynyl-6-fluoro-naphthalen-2-ol], for which the IC50 (commonly the concentration at which inhibition is half-maximal) at KRAS G13D is 100 to 10000 nM; on KRAS G12S, at most 10 nM; at KRAS G12A it was at most 10 nM; against KRAS G12V, at most 10 nM; on KRAS G12D, at most 10 nM; against KRAS WT, at most 10 nM. The IC50 against KRAS Q61H and against KRAS G12C was at most 10 nM throughout.

In the case of `Oc1cc(-c2ncc3c(N4CC5CNCC5C4)nc(OCC45CCCN4CCC5)nc3c2F)c2ccccc2c1` (centres unmarked) [Example 1, 4-[4-(2,3,3a,4,6,6a-hexahydro-1H-pyrrolo[3,4-c]pyrrol-5-yl)-8-fluoro-2-(1,2,3,5,6,7-hexahydropyrrolizin-8-ylmethoxy)pyrido[4,3-d]pyrimidin-7-yl]naphthalen-2-ol], the IC50 is 100 to 10000 nM against KRAS G13D; 100 to 10000 nM against KRAS G12V; 10 to 100 nM at KRAS G12D; 100 to 10000 nM at KRAS WT; 100 to 10000 nM on KRAS Q61H; 100 to 10000 nM against KRAS G12C.

`Oc1cc(-c2ncc3c(N4CCOC5(CCCC5)C4)nc(OCC45CCCN4CCC5)nc3c2F)c2ccccc2c1` [Example 4, 4-[8-fluoro-2-(1,2,3,5,6,7-hexahydropyrrolizin-8-ylmethoxy)-4-(6-oxa-9-azaspiro[4.5]-decan-9-yl)pyrido[4,3-d]pyrimidin-7-yl]naphthalen-2-ol]: the IC50 on KRAS G13D (setting [1]) was over 10000 nM; at KRAS G12S (setting [2]), over 10000 nM; against KRAS G12A, 100 to 10000 nM; on KRAS G12V, 100 to 10000 nM; at KRAS G12D, 100 to 10000 nM; against KRAS WT, 100 to 10000 nM. This molecule also had an IC50 at KRAS G12C of 100 to 10000 nM.

For `Oc1cc(-c2ncc3c(N4CCC5(CCOC5)CC4)nc(OCC45CCCN4CCC5)nc3c2F)c2ccccc2c1` [Example 8, 4-[8-fluoro-2-(1,2,3,5,6,7-hexahydropyrrolizin-8-ylmethoxy)-4-(2-oxa-8-azaspiro[4.5]decan-8-yl)pyrido[4,3-d]pyrimidin-7-yl]naphthalen-2-ol], the half-maximal inhibitory concentration (IC50) on KRAS G13D, on KRAS G12V, on KRAS G12D, against KRAS WT, against KRAS Q61H and against KRAS G12C was 100 to 10000 nM in each case.

As for `Oc1cc(-c2ncc3c(NCC4CCOCC4)nc(OCC45CCCN4CCC5)nc3c2F)c2ccccc2c1` [Example 9, 4-[8-fluoro-2-(1,2,3,5,6,7-hexahydropyrrolizin-8-ylmethoxy)-4-(tetrahydropyran-4-ylmethylamino)pyrido[4,3-d]pyrimidin-7-yl]naphthalen-2-ol], the IC50 at KRAS G13D (setting [1]) is over 10000 nM; on KRAS G12S, 100 to 10000 nM; on KRAS G12A, 100 to 10000 nM; against KRAS G12V, 100 to 10000 nM; on KRAS G12D, 100 to 10000 nM; against KRAS WT it was 100 to 10000 nM. The molecule further returned an IC50 against KRAS G12C of 100 to 10000 nM.

Regarding `O=C1CN(c2nc(OCC34CCCN3CCC4)nc3c(F)c(-c4cc(O)cc5ccccc45)ncc23)CCN1` [Example 10, 4-[8-fluoro-2-(1,2,3,5,6,7-hexahydropyrrolizin-8-ylmethoxy)-7-(3-hydroxy-1-naphthyl)pyrido[4,3-d]pyrimidin-4-yl]piperazin-2-one], the IC50 at KRAS G13D (setting [1]) is over 10000 nM; against KRAS G12S, 100 to 10000 nM; against KRAS G12A, 100 to 10000 nM; at KRAS G12V, 100 to 10000 nM; on KRAS G12D, 100 to 10000 nM; against KRAS WT it was 100 to 10000 nM. This molecule registered an IC50 against KRAS G12C of 100 to 10000 nM.

`O=C1CCN(c2nc(OCC34CCCN3CCC4)nc3c(F)c(-c4cc(O)cc5ccccc45)ncc23)CCN1` [Example 13]: the half-inhibitory concentration (IC50) on KRAS G13D (setting [1]) was over 10000 nM; against KRAS G12S it was 100 to 10000 nM; against KRAS G12A, 100 to 10000 nM; against KRAS G12V, 100 to 10000 nM; at KRAS G12D it was 10 to 100 nM; against KRAS WT, 100 to 10000 nM. At KRAS G12C, this molecule came in with an IC50 of 100 to 10000 nM.

On to `O=C1CN(c2nc(OCC34CCCN3CCC4)nc3c(F)c(-c4cc(O)cc5ccccc45)ncc23)CCCN1` [Example 14, 4-[8-fluoro-2-(1,2,3,5,6,7-hexahydropyrrolizin-8-ylmethoxy)-7-(3-hydroxy-1-naphthyl)pyrido[4,3-d]pyrimidin-4-yl]-1,4-diazepan-2-one], for which the half-maximal inhibitory concentration (IC50) on KRAS G13D (setting [1]) was over 10000 nM; on KRAS G12S it was 100 to 10000 nM; against KRAS G12A, 100 to 10000 nM; against KRAS G12V, 10 to 100 nM; on KRAS G12D, 10 to 100 nM; on KRAS WT, 100 to 10000 nM. This molecule also registered an IC50 on KRAS G12C of 10 to 100 nM.

For `CSCCCN(C)c1nc(OCC23CCCN2CCC3)nc2c(F)c(-c3cc(O)cc4ccccc34)ncc12` [Example 27, 4-[8-fluoro-2-(1,2,3,5,6,7-hexahydropyrrolizin-8-ylmethoxy)-4-[methyl(3-methylsulfanylpropyl)amino]pyrido[4,3-d]pyrimidin-7-yl]naphthalen-2-ol], the IC50 is over 10000 nM at KRAS G13D (setting [1]); 100 to 10000 nM against KRAS G12S; 100 to 10000 nM against KRAS G12A; 100 to 10000 nM on KRAS G12D; 100 to 10000 nM on KRAS WT; 100 to 10000 nM on KRAS G12C.

`COC(C)CCNc1nc(OCC23CCCN2CCC3)nc2c(F)c(-c3cc(O)cc4ccccc34)ncc12` (centres unmarked) [Example 32, 4-[8-fluoro-2-(1,2,3,5,6,7-hexahydropyrrolizin-8-ylmethoxy)-4-(3-methoxybutylamino)pyrido[4,3-d]pyrimidin-7-yl]naphthalen-2-ol]: the IC50 was over 10000 nM on KRAS G13D (setting [1]); 100 to 10000 nM against KRAS G12S; 100 to 10000 nM against KRAS G12A; 100 to 10000 nM at KRAS G12D; 100 to 10000 nM against KRAS WT.

On to `COCC1CCN(c2nc(OCC34CCCN3CCC4)nc3c(F)c(-c4cc(O)cc5ccccc45)ncc23)C1` (centres unmarked) [Example 33, 4-[8-fluoro-2-(1,2,3,5,6,7-hexahydropyrrolizin-8-ylmethoxy)-4-[3-(methoxymethyl)pyrrolidin-1-yl]pyrido [4,3-d]pyrimidin-7-yl]naphthalen-2-ol], for which the IC50 at KRAS G13D (setting [1]) was over 10000 nM; at KRAS G12S (setting [2]), over 10000 nM; at KRAS G12A, 100 to 10000 nM; at KRAS G12D, 100 to 10000 nM; at KRAS WT, 100 to 10000 nM.

As for `Oc1cc(-c2ncc3c(N4CCCCC4)nc(OCC45CCCN4CCC5)nc3c2F)c2ccccc2c1` [Example 34, 4-[8-fluoro-2-(1,2,3,5,6,7-hexahydropyrrolizin-8-ylmethoxy)-4-(1-piperidyl)pyrido[4,3-d]pyrimidin-7-yl]naphthalen-2-ol], the IC50 is over 10000 nM at KRAS G13D (setting [1]); 100 to 10000 nM on KRAS G12S; 10 to 100 nM on KRAS G12A; 10 to 100 nM against KRAS G12V; 10 to 100 nM at KRAS G12D; 10 to 100 nM against KRAS WT. For the same molecule, the IC50 against KRAS G12C is 10 to 100 nM.

Turning to `Oc1cc(-c2ncc3c(NC4CCCCCC4)nc(OCC45CCCN4CCC5)nc3c2F)c2ccccc2c1` [Example 36, 4-[4-(cycloheptylamino)-8-fluoro-2-(1,2,3,5,6,7-hexahydropyrrolizin-8-ylmethoxy)pyrido [4,3-d]pyrimidin-7-yl]naphthalen-2-ol], the IC50 at KRAS G13D (setting [1]) is over 10000 nM; on KRAS G12S (setting [2]), over 10000 nM; at KRAS G12A, 100 to 10000 nM; at KRAS G12D it was 100 to 10000 nM; on KRAS WT, 100 to 10000 nM.
